This is an account of results in US7074789B2, “Kinase inhibitors” (Amgen Inc., priority 1999, dated 2006).

What all share (assay type): biochemical
For test [1], the target named is T1, PDGFRB (Homo sapiens, UniProt P09619).
T1 construct: Kinases are expressed as either kinase domains or full length constructs; made in house
The experiment in a line: Kinase inhibition assay (33P transfer), PDGFRB. The settings on record: read-out: PDGFRB-1.

Test [2] addresses T2, Zap-70 (Homo sapiens, UniProt P43403).
T2 construct: Kinases are expressed as either kinase domains or full length constructs; made in house
T2 sequence (P43403 1-619): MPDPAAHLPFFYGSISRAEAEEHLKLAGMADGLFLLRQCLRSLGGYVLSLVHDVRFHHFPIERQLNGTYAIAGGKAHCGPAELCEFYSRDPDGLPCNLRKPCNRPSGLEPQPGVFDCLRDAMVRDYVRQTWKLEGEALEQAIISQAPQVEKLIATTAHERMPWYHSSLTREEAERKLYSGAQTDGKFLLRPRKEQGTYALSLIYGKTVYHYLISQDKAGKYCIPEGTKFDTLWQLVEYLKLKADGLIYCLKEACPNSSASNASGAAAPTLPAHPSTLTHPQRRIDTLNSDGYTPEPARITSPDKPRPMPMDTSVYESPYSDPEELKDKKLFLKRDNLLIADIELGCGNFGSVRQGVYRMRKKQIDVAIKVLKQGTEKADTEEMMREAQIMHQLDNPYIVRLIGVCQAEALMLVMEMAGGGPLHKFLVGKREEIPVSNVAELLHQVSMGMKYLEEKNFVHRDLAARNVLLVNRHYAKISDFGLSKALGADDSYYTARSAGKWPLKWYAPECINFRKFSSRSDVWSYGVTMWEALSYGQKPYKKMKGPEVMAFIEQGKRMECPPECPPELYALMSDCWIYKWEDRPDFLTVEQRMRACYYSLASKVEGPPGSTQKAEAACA
Kind of test: Kinase inhibition assay (33P transfer), Zap-70. The settings on record: read-out: Zap-1. The essentials: (§1)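 Steps: express kinase as GST or polyHistidine fusion in E. coli or High Five cells; optionally co-express or mix with regulatory polypeptides; incubate with 33P-ATP and plate-attached poly(Glu,Tyr) 4:1 or poly(Arg,Ser) 3:1; wash with 0.5% phosphoric acid; count by liquid scintillation.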

Test [3] addresses T3, Ret-1 (Homo sapiens, UniProt P07949).
T3 construct: Kinases are expressed as either kinase domains or full length constructs; made in house
The experiment in a line: Kinase inhibition assay (33P transfer), Ret. The settings on record: Table 6, Ret-1 kinase inhibition class.

Test [4] concerns the target T4, FGFR1 (Homo sapiens, UniProt P11362).
T4 construct: Kinases are expressed as either kinase domains or full length constructs; made in house
The experiment in a line: Kinase inhibition assay (33P transfer), FGFR1. The settings on record: read-out: FGFR1-1.

In test [5] the target is T5, IGFR-1 (Homo sapiens, UniProt P08069).
T5 construct: Kinases are expressed as either kinase domains or full length constructs; made in house
T5 sequence (P08069 31-1367): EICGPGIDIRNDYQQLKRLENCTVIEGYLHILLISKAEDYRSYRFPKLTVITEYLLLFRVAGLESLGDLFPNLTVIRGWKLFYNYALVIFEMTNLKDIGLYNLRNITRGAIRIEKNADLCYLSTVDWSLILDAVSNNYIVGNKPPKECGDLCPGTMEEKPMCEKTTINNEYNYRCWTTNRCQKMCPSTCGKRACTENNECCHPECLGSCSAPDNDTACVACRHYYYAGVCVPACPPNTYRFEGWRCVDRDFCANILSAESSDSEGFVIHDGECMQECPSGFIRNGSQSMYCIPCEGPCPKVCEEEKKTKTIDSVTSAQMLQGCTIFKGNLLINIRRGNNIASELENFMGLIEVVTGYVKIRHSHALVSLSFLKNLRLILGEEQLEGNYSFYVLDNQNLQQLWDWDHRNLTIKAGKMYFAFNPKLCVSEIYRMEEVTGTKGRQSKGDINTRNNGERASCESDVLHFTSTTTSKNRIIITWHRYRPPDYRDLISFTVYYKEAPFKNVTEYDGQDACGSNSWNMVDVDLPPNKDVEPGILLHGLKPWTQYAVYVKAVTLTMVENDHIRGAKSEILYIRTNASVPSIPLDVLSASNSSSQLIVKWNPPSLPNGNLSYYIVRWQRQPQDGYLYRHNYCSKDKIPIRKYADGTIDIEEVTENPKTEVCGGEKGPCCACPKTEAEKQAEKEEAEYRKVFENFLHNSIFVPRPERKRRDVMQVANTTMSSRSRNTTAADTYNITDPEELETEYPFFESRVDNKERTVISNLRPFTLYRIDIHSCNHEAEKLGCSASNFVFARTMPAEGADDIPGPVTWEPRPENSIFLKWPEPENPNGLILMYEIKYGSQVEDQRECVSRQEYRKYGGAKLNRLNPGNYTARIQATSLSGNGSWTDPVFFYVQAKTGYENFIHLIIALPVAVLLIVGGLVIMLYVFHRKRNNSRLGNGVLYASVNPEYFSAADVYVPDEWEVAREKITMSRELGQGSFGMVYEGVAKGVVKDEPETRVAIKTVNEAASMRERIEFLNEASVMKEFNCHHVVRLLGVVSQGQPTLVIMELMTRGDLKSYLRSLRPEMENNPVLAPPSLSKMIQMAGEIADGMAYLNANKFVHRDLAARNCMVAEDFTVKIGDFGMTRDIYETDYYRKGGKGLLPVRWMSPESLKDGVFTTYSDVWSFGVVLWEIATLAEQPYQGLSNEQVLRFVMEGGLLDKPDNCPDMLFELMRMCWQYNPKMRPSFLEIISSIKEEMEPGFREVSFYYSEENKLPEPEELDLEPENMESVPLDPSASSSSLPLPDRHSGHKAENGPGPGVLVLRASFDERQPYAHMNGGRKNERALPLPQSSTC
Kind of test: Kinase inhibition assay, IGFR-1 (Table 2). Particulars: Table 2, kinase inhibition class.

The target in test [6] is T6, EGFR (Homo sapiens, UniProt P00533).
T6 construct: Kinases are expressed as either kinase domains or full length constructs; made in house
T6 sequence (P00533 25-1210, species assumed): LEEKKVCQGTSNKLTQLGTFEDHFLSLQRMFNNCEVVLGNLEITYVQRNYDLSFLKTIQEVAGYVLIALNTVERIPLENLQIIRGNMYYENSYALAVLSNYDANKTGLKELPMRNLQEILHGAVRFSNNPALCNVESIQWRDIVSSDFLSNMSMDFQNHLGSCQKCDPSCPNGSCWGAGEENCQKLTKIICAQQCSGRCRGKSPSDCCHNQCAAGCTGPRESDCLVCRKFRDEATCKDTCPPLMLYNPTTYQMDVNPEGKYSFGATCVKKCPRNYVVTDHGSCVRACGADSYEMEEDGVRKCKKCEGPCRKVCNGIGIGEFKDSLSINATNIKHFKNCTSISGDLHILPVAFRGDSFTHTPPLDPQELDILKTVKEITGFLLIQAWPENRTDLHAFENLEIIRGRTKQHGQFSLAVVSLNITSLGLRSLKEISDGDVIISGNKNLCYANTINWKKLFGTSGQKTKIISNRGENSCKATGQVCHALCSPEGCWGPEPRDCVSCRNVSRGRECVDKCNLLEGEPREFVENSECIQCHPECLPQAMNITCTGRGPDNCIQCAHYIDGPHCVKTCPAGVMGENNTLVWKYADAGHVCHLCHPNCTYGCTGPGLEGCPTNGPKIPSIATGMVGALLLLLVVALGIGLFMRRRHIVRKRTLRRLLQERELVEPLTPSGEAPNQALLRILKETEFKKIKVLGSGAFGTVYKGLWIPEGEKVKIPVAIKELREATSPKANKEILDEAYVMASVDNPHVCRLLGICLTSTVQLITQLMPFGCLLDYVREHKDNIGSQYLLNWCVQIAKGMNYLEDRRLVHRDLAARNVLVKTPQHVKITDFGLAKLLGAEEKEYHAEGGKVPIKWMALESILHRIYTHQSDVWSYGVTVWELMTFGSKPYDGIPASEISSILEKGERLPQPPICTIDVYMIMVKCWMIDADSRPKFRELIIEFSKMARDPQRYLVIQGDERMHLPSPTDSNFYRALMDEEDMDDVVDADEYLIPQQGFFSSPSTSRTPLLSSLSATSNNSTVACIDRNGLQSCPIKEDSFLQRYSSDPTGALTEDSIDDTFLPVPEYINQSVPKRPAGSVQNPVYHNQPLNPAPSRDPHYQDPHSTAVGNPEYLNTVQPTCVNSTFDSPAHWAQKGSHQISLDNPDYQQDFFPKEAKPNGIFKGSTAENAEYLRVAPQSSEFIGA
The experiment in a line: Kinase inhibition assay (33P transfer), EGFR. Particulars: read-out: EGFR-1. The essentials: (§2)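 IC50: inhibitor concentration lowering 33P incorporation into immobilised substrate by 50%. Label transferred from ATP to poly(Glu,Tyr) 4:1 or poly(Arg,Ser) 3:1 is measured after a 0.5% phosphoric acid wash by liquid scintillation.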

The target in test [7] is T7, Fyn (Homo sapiens, UniProt P06241).
T7 construct: Kinases are expressed as either kinase domains or full length constructs; made in house
Kind of test: Kinase inhibition assay (33P transfer), Fyn. The settings on record: read-out: Fyn-1. A digest of the protocol:
as §2

Test [8] addresses T8, ErbB4 (Homo sapiens, UniProt Q15303).
T8 construct: Kinases are expressed as either kinase domains or full length constructs; made in house
Kind of test: Kinase inhibition assay (33P transfer), ErbB4. Particulars: read-out: ErbB4-1.

For test [9], the target named is T9, Flt-1 (Homo sapiens, UniProt P17948).
T9 construct: Kinases are expressed as either kinase domains or full length constructs; made in house
The experiment in a line: Kinase inhibition assay (33P transfer), Flt-1. The essentials: as §2

In test [10] the target is T10, c-Met (Homo sapiens, UniProt P08581).
T10 construct: Kinases are expressed as either kinase domains or full length constructs; made in house
The experiment in a line: Kinase inhibition assay (33P transfer), c-Met. Particulars: read-out: Met-1. The essentials: as §2

Test [11] deals with T11, ErbB2 (Homo sapiens, UniProt P04626).
T11 construct: Kinases are expressed as either kinase domains or full length constructs; made in house
T11 sequence (P04626 23-1255, species assumed): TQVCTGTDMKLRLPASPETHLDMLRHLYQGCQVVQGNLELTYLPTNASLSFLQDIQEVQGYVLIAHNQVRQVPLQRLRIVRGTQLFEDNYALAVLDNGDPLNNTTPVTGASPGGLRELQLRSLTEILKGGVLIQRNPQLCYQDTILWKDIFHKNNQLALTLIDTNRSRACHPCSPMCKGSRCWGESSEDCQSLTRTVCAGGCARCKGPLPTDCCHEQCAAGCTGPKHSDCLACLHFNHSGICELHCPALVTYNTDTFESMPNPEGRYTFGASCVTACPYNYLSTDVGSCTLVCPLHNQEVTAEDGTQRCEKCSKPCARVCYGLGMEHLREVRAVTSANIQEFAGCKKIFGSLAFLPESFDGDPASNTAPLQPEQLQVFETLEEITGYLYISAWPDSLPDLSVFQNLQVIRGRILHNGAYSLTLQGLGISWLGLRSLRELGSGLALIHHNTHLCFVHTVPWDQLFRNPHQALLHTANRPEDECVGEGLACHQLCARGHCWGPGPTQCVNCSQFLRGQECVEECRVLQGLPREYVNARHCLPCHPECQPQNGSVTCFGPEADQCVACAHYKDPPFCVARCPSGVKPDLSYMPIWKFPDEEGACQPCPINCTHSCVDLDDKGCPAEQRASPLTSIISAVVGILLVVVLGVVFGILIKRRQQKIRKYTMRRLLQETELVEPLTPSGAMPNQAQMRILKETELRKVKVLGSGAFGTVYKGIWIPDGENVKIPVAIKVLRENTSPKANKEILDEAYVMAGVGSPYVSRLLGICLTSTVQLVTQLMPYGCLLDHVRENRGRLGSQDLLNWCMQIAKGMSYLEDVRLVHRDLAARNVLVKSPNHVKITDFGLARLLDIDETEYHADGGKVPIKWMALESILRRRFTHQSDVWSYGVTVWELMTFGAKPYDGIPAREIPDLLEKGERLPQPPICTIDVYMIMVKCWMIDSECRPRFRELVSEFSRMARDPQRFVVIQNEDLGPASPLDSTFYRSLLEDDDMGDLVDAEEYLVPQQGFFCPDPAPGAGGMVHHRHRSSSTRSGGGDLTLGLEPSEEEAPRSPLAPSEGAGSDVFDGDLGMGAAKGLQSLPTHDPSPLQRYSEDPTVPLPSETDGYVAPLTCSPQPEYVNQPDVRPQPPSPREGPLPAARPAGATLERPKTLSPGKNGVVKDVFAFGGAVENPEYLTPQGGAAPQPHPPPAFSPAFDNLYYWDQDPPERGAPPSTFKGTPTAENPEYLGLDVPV
The experiment in a line: Kinase inhibition assay (33P transfer), ErbB2. Particulars: read-out: ErbB2-2. A digest of the protocol: as §2

Test [12] deals with T12, Lyn (Homo sapiens, UniProt P07948).
T12 construct: Kinases are expressed as either kinase domains or full length constructs; made in house
T12 sequence (P07948 whole entry, species assumed, the tested form may be a part): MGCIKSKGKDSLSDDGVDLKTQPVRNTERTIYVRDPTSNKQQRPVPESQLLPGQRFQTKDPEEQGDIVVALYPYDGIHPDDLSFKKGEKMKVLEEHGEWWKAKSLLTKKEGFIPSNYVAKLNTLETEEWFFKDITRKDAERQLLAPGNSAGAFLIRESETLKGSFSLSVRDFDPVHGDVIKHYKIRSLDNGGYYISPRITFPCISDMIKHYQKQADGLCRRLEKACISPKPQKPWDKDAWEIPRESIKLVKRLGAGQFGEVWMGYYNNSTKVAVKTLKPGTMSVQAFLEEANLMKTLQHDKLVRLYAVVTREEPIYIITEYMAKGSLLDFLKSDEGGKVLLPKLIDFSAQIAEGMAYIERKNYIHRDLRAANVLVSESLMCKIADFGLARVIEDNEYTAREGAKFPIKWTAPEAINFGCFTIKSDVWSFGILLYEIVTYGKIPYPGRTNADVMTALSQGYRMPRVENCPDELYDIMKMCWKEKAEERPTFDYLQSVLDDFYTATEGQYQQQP
The experiment in a line: Kinase inhibition assay (33P transfer), Lyn. The settings on record: Table 6, Lyn-1 kinase inhibition class. A digest of the protocol: as §2

Test [13] deals with T13, Kdr (Homo sapiens, UniProt P35968).
T13 construct: Kinases are expressed as either kinase domains or full length constructs; made in house
Kind of test: Kinase inhibition assay (33P transfer), Kdr. The settings on record: read-out: KDR-1. The essentials:
as §1

Test [14] addresses T14, Lck (Homo sapiens, UniProt P06239).
T14 construct: Kinases are expressed as either kinase domains or full length constructs; made in house
The experiment in a line: Kinase inhibition assay (33P transfer), Lck. The settings on record: read-out: Lck-1. A digest of the protocol:
as §1

Test [15] has as its target T15, Src (Homo sapiens, UniProt P12931).
T15 construct: Kinases are expressed as either kinase domains or full length constructs; made in house
Kind of test: Kinase inhibition assay (33P transfer), Src. The settings on record: Table 6, Src-1 kinase inhibition class. The essentials: as §2

Test [16] has as its target T16, AKT (Homo sapiens, UniProt Q9Y243).
T16 construct: Kinases are expressed as either kinase domains or full length constructs; made in house
The experiment in a line: Kinase inhibition assay (33P transfer), AKT. The settings on record: read-out: AKT3-1. The essentials: as §1

Test [17] deals with T17, Itk (Homo sapiens, UniProt Q08881).
T17 construct: Kinases are expressed as either kinase domains or full length constructs; made in house
T17 sequence (Q08881 1-620): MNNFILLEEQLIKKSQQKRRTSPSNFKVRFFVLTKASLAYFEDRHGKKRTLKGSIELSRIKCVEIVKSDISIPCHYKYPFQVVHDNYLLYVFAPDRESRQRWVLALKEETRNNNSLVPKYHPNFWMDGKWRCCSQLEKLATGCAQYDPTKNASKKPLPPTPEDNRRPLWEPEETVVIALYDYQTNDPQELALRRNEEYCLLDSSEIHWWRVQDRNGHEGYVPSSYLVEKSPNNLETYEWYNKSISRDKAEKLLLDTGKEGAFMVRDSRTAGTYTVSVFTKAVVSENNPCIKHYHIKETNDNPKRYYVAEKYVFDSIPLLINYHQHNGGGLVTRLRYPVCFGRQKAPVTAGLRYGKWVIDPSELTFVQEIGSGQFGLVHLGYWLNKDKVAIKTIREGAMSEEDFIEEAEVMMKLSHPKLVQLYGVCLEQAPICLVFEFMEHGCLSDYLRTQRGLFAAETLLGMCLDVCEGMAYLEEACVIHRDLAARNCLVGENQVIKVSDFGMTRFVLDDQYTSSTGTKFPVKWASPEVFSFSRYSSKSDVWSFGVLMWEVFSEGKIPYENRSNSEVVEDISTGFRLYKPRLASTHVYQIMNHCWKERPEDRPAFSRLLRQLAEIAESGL
The experiment in a line: Kinase inhibition assay (33P transfer), Itk. Particulars: read-out: Itk-1. The essentials: as §2

Test [18] has as its target T5, IGFR-1. The experiment in a line: Kinase inhibition assay (33P transfer), IGFR-1. Particulars: Table 2, class symbols A-E.
Setting [19] is: Table 2, kinase inhibition class.

pIC50: −log10 of the molar value. Several values for one entry are separate records, joined by “and”; a condition that tells them apart may be missing. Equal values may be shown once. Read-outs that look alike come from different tables or passages of the source.

T15 sequence (P12931 whole entry, species assumed, the tested form may be a part): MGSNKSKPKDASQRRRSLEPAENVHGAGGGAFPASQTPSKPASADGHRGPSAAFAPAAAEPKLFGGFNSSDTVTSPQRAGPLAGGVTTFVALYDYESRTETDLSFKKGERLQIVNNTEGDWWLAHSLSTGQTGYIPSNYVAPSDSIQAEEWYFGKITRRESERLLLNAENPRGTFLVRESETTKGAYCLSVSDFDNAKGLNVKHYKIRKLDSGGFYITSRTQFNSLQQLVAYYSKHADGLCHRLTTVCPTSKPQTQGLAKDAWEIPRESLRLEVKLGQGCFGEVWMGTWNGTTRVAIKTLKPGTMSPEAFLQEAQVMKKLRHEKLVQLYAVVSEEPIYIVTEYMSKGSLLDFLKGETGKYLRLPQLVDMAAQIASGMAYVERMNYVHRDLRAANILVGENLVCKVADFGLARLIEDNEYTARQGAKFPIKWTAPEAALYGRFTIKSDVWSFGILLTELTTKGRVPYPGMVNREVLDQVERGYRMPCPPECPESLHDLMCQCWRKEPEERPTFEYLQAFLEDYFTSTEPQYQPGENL

For `COc1cc(Nc2ncnc(-n3c(NC4CCCc5ccccc54)nc4ccccc43)n2)cc(OC)c1OC` (centres unmarked) [Compound 587], the pIC50 is 5.34 to 6.12 and < 5.07 in [1]; less than 5.07 in test [2]; greater than 6.12 in test [3]; greater than 6.12 in test [4]; 5.07 to 5.17 and < 5.07 in [5]; 5.17 to 5.34 and 5.07 to 5.17 in [6] (setting [19]). Also, the pIC50 in [7] is less than 5.07; in test [8], 5.34 to 6.12; in [9], 5.34 to 6.12; in test [10] (setting [19]) it was 5.07 to 5.17 and < 5.07; in test [11], 5.34 to 6.12 and 5.17 to 5.34; in test [12] it was 5.34 to 6.12. Moreover, the pIC50 in test [13] is > 6.12 and 5.34 to 6.12; in [14], 5.34 to 6.12; in test [15] it was less than 5.07; in test [16] (setting [19]) it was less than 5.07; in test [17] it was less than 5.07.

Regarding `CCOC(=O)C(Nc1nc2ccccc2n1-c1ncnc(Nc2cc(OC)c(OC)c(OC)c2)n1)c1ccccc1` (centres unmarked) [Compound 585], the pIC50 in test [1] is 5.36 to 6.14; in [2], less than 5.09; in test [3], greater than 6.14; in test [4], greater than 6.14; in test [5] it was less than 5.09; in test [6] (setting [19]) it was less than 5.09. For the same compound, the pIC50 in [7] was less than 5.09; in [8], less than 5.09; in test [9] it was 5.36 to 6.14; in test [10] (setting [19]), 5.09 to 5.20; in test [11], 5.20 to 5.36; in test [12], less than 5.09. For the same compound, the pIC50 was greater than 6.14 in test [13]; 5.20 to 5.36 in test [14]; less than 5.09 in test [15]; less than 5.09 in [16] (setting [19]); less than 5.09 in test [17].

`COc1cc(Nc2ncnc(-n3c(NC4c5ccccc5CC4O)nc4ccccc43)n2)cc(OC)c1OC` (centres unmarked) [Compound 579]: the pIC50 in [1] was less than 5.07; in test [2], less than 5.07; in [3] it was greater than 6.12; in [4] it was 5.34 to 6.12; in [5], less than 5.07; in test [7] it was less than 5.07. Besides, the pIC50 was greater than 6.12 in test [8]; 5.34 to 6.12 in test [9]; less than 5.07 in test [10] (setting [19]); 5.18 to 5.34 and > 6.12 in [11]; 5.18 to 5.34 in test [12]; 5.34 to 6.12 and > 6.12 in test [13]. The pIC50 in test [14] is 5.34 to 6.12; in test [15] it was less than 5.07; in test [16] (setting [19]), less than 5.07; in test [17] it was less than 5.07.

Take `COc1cc(Nc2ncnc(-c3cccnc3Nc3cccc(C#N)c3)n2)cc(OC)c1OC` [Compound 828]: the pIC50 in test [1] was less than 5.01; in [2] (Table 3, class symbols) it was less than 5.01; in test [6] (Table 2, class symbols A-E) it was less than 5.01; in test [18], less than 5.01; in test [10] (Table 2, class symbols A-E), less than 5.01; in [11] it was less than 5.01. Further, the pIC50 is less than 5.01 in test [13] (Table 3, class symbols); less than 5.01 in test [14] (Table 3, class symbols); less than 5.01 in [16] (Table 2, class symbols A-E); less than 5.01 in test [17] (Table 3, class symbols).

As for `O=C(O)CCc1cccc(Nc2ncnc(Nc3cc(-c4ccco4)[nH]n3)n2)c1` [Compound 887], the pIC50 in test [1] is 5.21 to 5.99; in test [2] (Table 3, class symbols) it was less than 4.94; in test [6] (Table 2, class symbols A-E) it was greater than 5.99; in test [18], greater than 5.99; in test [10] (Table 2, class symbols A-E) it was greater than 5.99; in test [11], 5.21 to 5.99. The pIC50 is greater than 5.99 in test [13] (Table 3, class symbols); 5.21 to 5.99 in test [14] (Table 3, class symbols); 5.21 to 5.99 in test [16] (Table 2, class symbols A-E); 5.05 to 5.21 in test [17] (Table 3, class symbols).

Turning to `CN(c1ccc(Cl)c(Cl)c1)c1ncnc(Nc2ccc3c(cnn3Cc3ccccc3)c2)n1` [Compound 903], the pIC50 in test [1] was 5.13 to 5.30; in test [2] (Table 3, class symbols) it was less than 5.02; in test [6] (Table 2, class symbols A-E), greater than 6.08; in test [18], less than 5.02; in test [10] (Table 2, class symbols A-E), 5.13 to 5.30; in [11], 5.13 to 5.30. Moreover, the pIC50 was less than 5.02 in test [13] (Table 3, class symbols); less than 5.02 in [14] (Table 3, class symbols); less than 5.02 in [16] (Table 2, class symbols A-E); less than 5.02 in [17] (Table 3, class symbols).
